Results reported in the supplement of paper PMC10307832.

What was measured:
Assay in all cases: relative viability (nuclei count vs DMSO), 5 days (fraction); higher = more cells survive
[1] = compound: CCN(CC)CCNC(=O)c1c(C)[nH]c(/C=C2\C(=O)Nc3ccc(F)cc32)c1C [Sunitinib] + C[C@@H](Oc1cc(-c2cnn(C3CCNCC3)c2)cnc1N)c1c(Cl)ccc(F)c1Cl [Crizotinib] (partner 1 µM)
Procedure, shortened: (§1)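 Lung cancer cell lines, seeded in 1536-well plates, were treated the following day by pin tool with a single drug or with five library-drug doses (not always all listed) in √10 steps on top of a fixed anchor-drug dose. Cells were fixed and nuclei stained in one step after 5 days, and nuclei were counted. Relative viability is the nuclei count for treated wells divided by that for vehicle wells, reported as medians of duplicate plates.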

[2] = compound: CCN(CC)CCNC(=O)c1c(C)[nH]c(/C=C2\C(=O)Nc3ccc(F)cc32)c1C [Sunitinib] + CC1(C)CCC(c2ccc(Cl)cc2)=C(CN2CCN(c3ccc(C(=O)NS(=O)(=O)c4ccc(N[C@H](CCN5CCOCC5)CSc5ccccc5)c(S(=O)(=O)C(F)(F)F)c4)cc3)CC2)C1 [Navitoclax] (partner 0.5 µM)
Procedure, shortened: as §1

[3] = compound: CCN(CC)CCNC(=O)c1c(C)[nH]c(/C=C2\C(=O)Nc3ccc(F)cc32)c1C [Sunitinib] + N=C(N)NC(=N)NCCc1ccccc1 [Phenformin] (partner 250 µM)
Procedure, shortened: as §1

[4] = compound: CCN(CC)CCNC(=O)c1c(C)[nH]c(/C=C2\C(=O)Nc3ccc(F)cc32)c1C [Sunitinib] + Nc1ncn([C@H]2C[C@H](O)[C@@H](CO)O2)c(=O)n1 [Decitabine] (partner 2 µM)
Procedure, shortened: as §1

Cell Line	relative viability ([1]; first compound 0.02 µM)	relative viability ([1]; first compound 0.06325 µM)	relative viability ([1]; first compound 0.2 µM)	relative viability ([1]; first compound 0.6325 µM)	relative viability ([1]; first compound 2 µM)	relative viability ([2]; first compound 0.02 µM)	relative viability ([2]; first compound 0.06325 µM)	relative viability ([2]; first compound 0.2 µM)	relative viability ([2]; first compound 0.6325 µM)	relative viability ([2]; first compound 2 µM)	relative viability ([3]; first compound 0.02 µM)	relative viability ([3]; first compound 0.06325 µM)	relative viability ([3]; first compound 0.2 µM)	relative viability ([3]; first compound 0.6325 µM)	relative viability ([3]; first compound 2 µM)	relative viability ([4]; first compound 0.02 µM)	relative viability ([4]; first compound 0.06325 µM)	relative viability ([4]; first compound 0.6325 µM)	relative viability ([4]; first compound 2 µM)	relative viability ([4]; first compound 0.2 µM)
201T	0.981	0.978	1.03	1.02	1.06	1.19	1.18	1.21	1.18	1.2	0.444	0.468	0.496	0.468	0.434	0.838	0.91	0.872	0.88	
A549	0.722	0.816		0.906	0.711	1.16	1.3	1.36		1.07	0.166	0.214	0.148	0.126	0.155	0.248	0.293	0.272	0.306	0.252
A-427	0.865	0.885	1.09	0.847	0.787	0.954	0.987	0.999	1	1.12	0.263	0.383	0.315	0.301	0.279	0.547	0.591	0.539	0.625	0.57
ABC-1	1.08	1.12	1.03	1.03	0.739						0.218	0.254	0.218	0.242	0.225	1.01	0.926	1.22	0.849	1.07
BEN	0.835	0.956	1.18	0.93	0.955	0.0567	0.0707	0.072	0.0591	0.0799	0.277	0.266	0.267	0.275	0.265	0.698	0.766	0.62	0.715	0.7
CAL-12T	0.564	0.735	0.623	0.791	0.582	1.18	1.32	1.44	1.36	1.36	0.515	0.648	0.591	0.702	0.518					
COR-L23	0.663	0.748	0.799	0.761	0.727	0.966	1.08	1.04	1.21	1.15	0.421	0.482	0.469	0.443	0.461	0.435	0.482	0.505	0.451	0.426
COR-L 105	0.513	0.811	0.995	0.894	0.695	0.752	0.868	0.832	0.921	0.959	0.415	0.544	0.496	0.49	0.471	0.692	0.734	0.649	0.607	0.663
Calu-6	0.711	0.772	0.852	0.932	0.79	0.896	0.772	0.923	0.972	0.914										
ChaGo-K-1	1.06	1.14	1.34	1.22	1.12	0.911	1.02	0.978	0.914	0.936	0.409	0.543	0.508	0.516	0.488	0.511	0.485	0.537	0.555	0.533
EKVX	0.966	1.14	1.22		0.958	0.608	0.595	1.13		0.968	0.242	0.234	0.236	0.256	0.248	0.352	0.384	0.382	0.412	0.45
EMC-BAC-2	0.743	0.848	0.821	0.88	0.797	1.15		1.31	1.09	1.22	0.489	0.566	0.595	0.559	0.543	0.94	1.02		1.04	1.14
EPLC-272H	0.906	0.736	0.959		0.706	1.09	1.2	1.38	1.12	0.921	0.335	0.334	0.324	0.313	0.263	0.346	0.408	0.368	0.312	0.389
H3255	0.836	0.831	0.876	1.05	0.917	0.477	0.52	0.634	0.548	0.519	0.4	0.383	0.344	0.411	0.365	0.567	0.671	0.651	0.529	0.607
HARA	1.02	1.11	1.41	1.19		1.05	1.18	1.16	1.18	1.2	0.478	0.495	0.484	0.399	0.43	0.506	0.604	0.563	0.586	0.539
HCC-15	0.761	0.84	0.958	0.86	0.859	0.705	0.765		0.744	0.691	0.424	0.523	0.588	0.49	0.404	0.639	0.829	0.671	0.677	0.708
HCC-44	0.874	0.784	0.937	0.859	0.774	0.96	0.964	1.05	0.946	0.969	0.29	0.238	0.274	0.145	0.142	0.931	1.04	0.951	0.949	0.99
HCC-78	0.299		0.348		0.365	0.756		0.684		0.869	0.639	0.726	0.71	0.677	0.806	0.709	0.69	0.683	0.726	0.737
HCC-366	0.559	0.519	1.02	0.593	0.551	0.963	1.06		1.05	0.971	0.559	0.624	0.644	0.599	0.544	0.314	0.361	0.313	0.408	0.365
HCC-827	0.911	0.964	0.965	0.939	0.947	1.01	1.05	1.04	1.01	0.978	0.366	0.401	0.439	0.403	0.291	0.324	0.314	0.322	0.292	0.31

Cell Line	relative viability ([1]; first compound 0.02 µM)	relative viability ([1]; first compound 0.06325 µM)	relative viability ([1]; first compound 0.2 µM)	relative viability ([1]; first compound 0.6325 µM)	relative viability ([1]; first compound 2 µM)	relative viability ([2]; first compound 0.02 µM)	relative viability ([2]; first compound 0.06325 µM)	relative viability ([2]; first compound 0.2 µM)	relative viability ([2]; first compound 0.6325 µM)	relative viability ([2]; first compound 2 µM)	relative viability ([3]; first compound 0.02 µM)	relative viability ([3]; first compound 0.06325 µM)	relative viability ([3]; first compound 0.2 µM)	relative viability ([3]; first compound 0.6325 µM)	relative viability ([3]; first compound 2 µM)	relative viability ([4]; first compound 0.02 µM)	relative viability ([4]; first compound 0.06325 µM)	relative viability ([4]; first compound 0.6325 µM)	relative viability ([4]; first compound 2 µM)	relative viability ([4]; first compound 0.2 µM)
HOP-62	0.862	1.23	0.971		1.03	1.09	1.16	1.17	1.09	0.942	0.614	0.713	0.745	0.661	0.698	0.22	0.218	0.209	0.239	0.252
IA-LM	0.779	0.774	0.982	0.926	1.04	0.767	0.912	0.929	0.872	0.814										
LC-2-ad	0.446	0.554	0.452	0.521	0.534	0.381	0.495	0.714	0.406	0.355	0.526	0.574	0.643	0.61	0.573	0.788	0.777	0.728	0.714	0.82
LCLC-97TM1	0.347	0.384		0.319	0.362	0.465	0.402		0.401	0.323	0.463	0.438	0.442	0.406	0.426	0.232	0.225	0.212	0.223	0.238
LCLC-103H	1.01	1.09	1.17	1.05	1.06						0.354	0.343	0.352	0.365	0.33	0.691	0.798	0.709	0.71	0.77
LK-2	0.203	0.265	0.203	0.23	0.231	0.737	0.963	1.12	0.862	0.836	0.224	0.427	0.406	0.494	0.249	0.238	0.409	0.316	0.279	0.299
LOU-NH91	0.733	0.732	0.789	0.71	0.746	0.727	0.665	0.746	0.734	0.564	0.734	0.699	0.765	0.825	0.764	0.787	0.824	0.805	0.835	0.826
NCI-H358	0.722	0.652	0.562	0.642	0.508						0.322	0.447	0.373	0.348	0.29	0.236	0.217	0.197	0.192	0.22
NCI-H522											0.602	0.79	0.659	0.673	0.756	0.594	0.675	0.719	0.717	0.735
NCI-H650	0.687	0.656	0.738	0.717	0.78						0.444	0.46	0.428	0.49	0.465	0.341	0.291	0.325	0.321	0.321
NCI-H661	1.09	0.987	1	0.978	1.17						0.263	0.31	0.27	0.264	0.265	0.509	0.578	0.56	0.597	0.544
NCI-H1299	0.923	0.965	0.991			1.03	1.11	1.05	1.03	1.09										
NCI-H1395						1.03	1.21	1.34	1.27	1.17	0.462	0.415	0.446	0.487	0.482	0.712	0.659	0.72	0.639	0.721
NCI-H1563	0.833	0.878	0.805	0.946	0.906						0.661	0.707	0.738		0.706					
NCI-H1648																0.46	0.647	0.55	0.681	0.633
NCI-H1703	0.39	0.206	0.238	0.17	0.225	0.621	0.264	0.289	0.254	0.184										
NCI-H1793							0.528	0.438	0.458	0.472	0.349	0.319	0.483	0.326	0.333		0.496	0.549	0.49	0.487
NCI-H2228	0.495	0.553	0.435	0.583	0.351	0.87	0.792	1	0.96	0.524	0.332	0.405	0.315	0.341	0.322					
NCI-H2342											0.523	0.571	0.62	0.542	0.727	0.751	0.784	0.819	0.718	0.708
SW 900											0.579	0.79	0.641	0.894	0.581	0.44	0.364	0.407	0.433	0.394
